Data: patent US7087729B1, “Peptide conjugates for the stabilization of membrane proteins and interactions with biological membranes” (University Health Network, priority 1999, dated 2006)
Square brackets hold non-standard residues; d marks the D form. Peptide text beside a SMILES is read from it. * marks the point of attachment. X1 = CCCCCCCCCCCCCCCCCCCCCCCCCCCC(=O)*; Orn = NCCC[C@H](N)C(=O)O

Key:
[1] = Solubility of lipopeptide detergents in water; format: physicochemical
Procedure: The LPDs with chain lengths from 10 to 16 carbons are soluble in water to over 10 mM, and the LPDs with chain lengths from 18 to 24 carbons are soluble to over 1 mM. […] As a control, a reference molecule known as C-0 is made with the same peptide scaffold, but without the coupled lipids. […] Every batch of peptide is analyzed by MS to confirm the synthesis.

bacteriorhodopsin = target: T1, bacteriorhodopsin (Halobacterium salinarum, UniProt P02945); assay: Stabilization of detergent-solubilized bacteriorhodopsin after exchange of OG for LPD; absorption spectrum of supernatant during storage; parameters: species or system Halobacterium salinarium; conditions: stored in the dark at room temperature, spectra at 1 to 32 days, supernatant after 100,000xg
T1 construct: Purple membranes were isolated by overlaying 12.5 mL of the membrane suspension on a 40%/60% (10 mL/7.5 mL) sucrose gradient; made in house; host or cells: Halobacterium salinarium (strain a gift of J. Lanyi); protein isolated from purple membranes of the natural producer
T1 sequence (P02945 14-261 limits assumed): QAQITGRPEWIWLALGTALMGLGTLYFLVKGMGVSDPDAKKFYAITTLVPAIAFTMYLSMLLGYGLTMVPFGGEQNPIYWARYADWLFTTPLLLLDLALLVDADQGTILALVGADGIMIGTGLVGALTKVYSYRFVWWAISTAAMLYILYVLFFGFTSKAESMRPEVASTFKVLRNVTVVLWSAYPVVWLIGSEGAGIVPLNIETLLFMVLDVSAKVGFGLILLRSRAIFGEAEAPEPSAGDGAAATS
Procedure: The purple membranes were homogenized in 25 mM sodium phosphate, pH 6.9 with 1.5% OG (Anatrace, Maumee, Ohio) and mixed for 36 hours in the dark. After adjusting the pH to 5.5 with 0.1 N HCl, the solution was spun at 200,000×g for 45 minutes to obtain the soluble bacterioprhodopsin (BR) in the supernatant. The protein was concentrated to 5 mg/mL by ultrafiltration with an Amicon PM 10 membrane. BR was further purified from this solution by chromatography on a Superdex 75 gel filtration column in 25 mM sodium phosphate, pH 5.5, 1.2% (w/v) OG, at a flow rate of 1 mL/min.
Typically, the initial concentration of OG in the purified BR sample was approximately 50 mM, which is roughly twice the critical micelle concentration for this detergent.

[2] = cited from earlier work

solubility in water (in words) [1] | Structure (SMILES) | preservation of the native bacteriorhodopsin absorption spectrum over storage time (bacteriorhodopsin) | preservation of the native bacteriorhodopsin absorption spectrum over storage time (bacteriorhodopsin; listed as octyl glucoside (OG)) | solubility in water [2]
poorly soluble in water | CCCCCCCCCCCCCCCCCCCCCCCCCCCC(=O)NCCC[C@H](NC(=O)[C@H](C)NC(=O)[C@H](CCCCN)NC(=O)[C@H](C)NC(=O)[C@H](C)NC(=O)[C@H](CCCCN)NC(=O)[C@H](CCC(=O)O)NC(=O)[C@H](C)NC(=O)[C@H](C)NC(=O)[C@H](CCC(=O)O)NC(=O)[C@H](C)NC(=O)[C@H](C)NC(=O)[C@H](Cc1ccc(O)cc1)NC(=O)[C@H](CCCCN)NC(=O)[C@H](C)NC(=O)[C@H](C)NC(=O)[C@H](CCCCN)NC(=O)[C@H](CCC(=O)O)NC(=O)[C@H](C)NC(=O)[C@H](C)NC(=O)[C@H](CCC(=O)O)NC(=O)[C@H](C)NC(=O)[C@H](CCCNC(=O)CCCCCCCCCCCCCCCCCCCCCCCCCCC)NC(=O)[C@H](C)NC(C)=O)C(=O)N[C@@H](C)C(N)=O [LPD-28] (Ac-A[Orn](X1)AEAAEKAAKYAAEAAEKAAKA[Orn](X1)A-NH2) | – | – | –
– | CCCCCCCCO[C@@H]1O[C@H](CO)[C@@H](O)[C@H](O)[C@H]1O [OG, octyl β-D-glucopyranoside] | lost the characteristic spectum for native bacteriorhodopsin within a few days | loss of the native conformation of the protein over time | greater than 20 % (w/v)
– | CCCCCCCCCCO[C@@H]1O[C@H](CO)[C@@H](O)[C@H](O)[C@H]1O [decyl glucoside] | – | – | 0.1 % (w/v)
– | CCCCCCCCCCCCO[C@@H]1O[C@H](CO)[C@@H](O)[C@H](O)[C@H]1O [dodecyl glucoside] | – | – | 0.008 % (w/v)
